For one test, the system named is ras 47-mer stem/loop RNA. The experiment in a line: Gel-shift assay of random 2'-O-methyl oligonucleotide sets binding to ras RNA target. The note with it: for pKd: Table 3, 2'-O-methyl sets, ras RNA about 10 pM, 100 mM NaCl, 10 mM MgCl2, 4 h at 37° C., read-out: KD (set KD); for shift of the target / binding in gel shift (FIG. 2B): Round 2; for binding in gel shift (FIG. 2B): sets at 1 and 10 μM.

The next test relates to protein CD4. The experiment in a line: Gel shift of 5' end labeled oligonucleotide groups with CD4. It is filed as binding. The note with it: for binding to the protein CD4: 100 pmoles labeled group, FIG. 7.
In another test the test system is HIV tat protein. As to the kind of experiment: Binding of oligonucleotide groups to HIV tat protein. The note with it: Example 27.
The test system of a further test is target protein. As to the kind of experiment: Gel shift assay of anion-exchange subfractions of oligonucleotide sets. It is filed as binding. The note with it: first round; sets subfractionated by charge. As to the method: An oligonucleotide analog group comprising four sets of oligonucleotides eight positions in length is prepared in accordance with Examples 3 and 6 wherein each of the sets has a different one of adenins, guanine, thymidine and cytosine in the 5th position, and the rest of the positions are randomized to provide the group: NNNNANNN, NNNNGNNN, NNNNTNNN, and NNNNCNNN. Each set is subfractionated by charge with an anion exchange column. Each subfraction is tested for affinity for the target protein by gel shift assay. […] In a further round, the 5th position is fixed to contain an adenins in the 5th position, and each set has a different nucleotide in the fourth position to provide the group NNNAANNN, NNNTANNN, NNNGANNN, and NNNCANNN. The sets are again subfractionated by charge with an anion exchange column and the subfractions are tested for affinity for the target protein by gel shift assay. The steps are repeated until each position is determined.
Background: In EMSA bound probe runs differently from free probe, usually more slowly.

pKd: −log10 of the molar value.

Usually pKd stands for the negative decadic logarithm of the Kd, by convention in mol/L.

For the sequence NNNNGNNNN [NNNNXNNNN X=G], the “binding in gel shift (FIG. 2A)” value in the test on ras 47-mer stem/loop RNA (Round 1, sets at 5, 10, 50 and 100 μM) was “no binding”. For the same sequence, the pKd at ras 47-mer stem/loop RNA is less than 4.00.

Turning to NNNNCNCNN [NNNNCNXNN X=C], the “shift of the target” value in the test on ras 47-mer stem/loop RNA (1 μM) is given as more than 25%; with ras 47-mer stem/loop RNA (10 μM) it was “about 50%”. Further, the pKd at ras 47-mer stem/loop RNA was 5.40.

Take NNNNTNNNN: the “binding to the protein CD4” value in the test on protein CD4 (listed as phosphorothioate oligonucleotide) is given as “binding of the oligonucleotide to the protein”. Also, the “binding affinity for CD4 (FIG. 7 legend)” value in the test on protein CD4 (100 pmoles, visible at 0.5 and 1 μG CD4, presence and absence of dIdC) is reported as “exhibited binding”. Also, in the test on HIV tat protein, the “binding against the tat protein” value was “Binding has been observed”.

As for NNNNCNNNN [NNNNXNNNN X=C], the “shift of the target to the bound form” value in the test on ras 47-mer stem/loop RNA (Round 1, 50 uM oligonucleotide concentration) was “more than 50%”. On ras 47-mer stem/loop RNA, the pKd was 5.00.

As to NNNNCNGNN [NNNNCNXNN X=G], in the test on ras 47-mer stem/loop RNA, the “binding in gel shift (FIG. 2B)” value is “minimal binding” and the pKd was less than 5.00.

Regarding NNNNANNN [Set A], in the test on target protein, the “binding affinity of subfraction for the target protein” value is listed as “highest binding affinity”.

On to NNCNCNCNN [NNXNCNCNN X=C], for which the “shift of the target (FIG. 2C)” value with ras 47-mer stem/loop RNA (Round 3, sets at 0.1 and 1 μM) is given as “greater than 50%”. Moreover, on ras 47-mer stem/loop RNA, the pKd is 6.30.

With NNNNCNANN [NNNNCNXNN X=A], in the test with ras 47-mer stem/loop RNA, the “binding in gel shift (FIG. 2B)” value is given as “minimal binding” and the pKd is less than 5.00.

NNNNANNNN [NNNNXNNNN X=A]: the “shift of ras target (FIG. 2A)” value with ras 47-mer stem/loop RNA (Round 1, 100 uM) is recorded as “slight shift”. Also, the pKd at ras 47-mer stem/loop RNA is 4.66.

On to NNNNTNNNN [2'-O-methyl set], for which the “binding to the protein CD4” value with protein CD4 is listed as “No binding”.

The values are drawn from patent US5672472A, “Synthetic unrandomization of oligomer fragments” (ISIS Pharmaceuticals, Inc., priority 1994, dated 1997).
